Assay results taken from ChEMBL document CHEMBL1148885, “Modeling assisted rational design of novel, potent, and selective pyrrolopyrimidine DPP-4 inhibitors” (Bioorg Med Chem Lett, 2007).

Columns and labels:
Dipeptidyl peptidase 8 = Dipeptidyl peptidase 8 (Homo sapiens, UniProt Q6V1X1); test: Inhibition of DPP8
Dipeptidyl peptidase 2 = Dipeptidyl peptidase 2 (Homo sapiens, UniProt Q9UHL4); test: Inhibition of QPP
Dipeptidyl peptidase 9 = Dipeptidyl peptidase 9 (Homo sapiens, UniProt Q86TI2)
Dipeptidyl peptidase 4 = Dipeptidyl peptidase 4 (Homo sapiens, UniProt P27487)
Dipeptidyl peptidase 4, sequence (P27487 whole entry): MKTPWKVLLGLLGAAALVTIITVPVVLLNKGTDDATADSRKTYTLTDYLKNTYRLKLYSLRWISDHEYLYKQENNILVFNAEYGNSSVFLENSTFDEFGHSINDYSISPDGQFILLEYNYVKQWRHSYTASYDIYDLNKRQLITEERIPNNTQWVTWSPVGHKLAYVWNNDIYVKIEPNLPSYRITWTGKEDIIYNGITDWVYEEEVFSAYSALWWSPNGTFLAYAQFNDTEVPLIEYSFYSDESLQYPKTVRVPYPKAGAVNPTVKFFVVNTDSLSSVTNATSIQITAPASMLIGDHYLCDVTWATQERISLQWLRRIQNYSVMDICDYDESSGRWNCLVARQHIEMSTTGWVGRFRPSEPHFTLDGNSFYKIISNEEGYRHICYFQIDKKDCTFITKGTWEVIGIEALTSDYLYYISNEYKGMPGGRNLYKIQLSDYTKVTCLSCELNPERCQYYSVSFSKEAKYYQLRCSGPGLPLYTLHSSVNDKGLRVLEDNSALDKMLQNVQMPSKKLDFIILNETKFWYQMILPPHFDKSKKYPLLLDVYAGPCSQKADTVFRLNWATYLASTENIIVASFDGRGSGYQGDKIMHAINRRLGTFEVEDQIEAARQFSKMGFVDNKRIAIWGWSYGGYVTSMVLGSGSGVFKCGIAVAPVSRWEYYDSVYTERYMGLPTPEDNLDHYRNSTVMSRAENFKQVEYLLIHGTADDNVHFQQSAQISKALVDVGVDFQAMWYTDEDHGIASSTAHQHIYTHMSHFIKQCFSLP

Dipeptidyl peptidase 8, sequence (Q6V1X1 whole entry): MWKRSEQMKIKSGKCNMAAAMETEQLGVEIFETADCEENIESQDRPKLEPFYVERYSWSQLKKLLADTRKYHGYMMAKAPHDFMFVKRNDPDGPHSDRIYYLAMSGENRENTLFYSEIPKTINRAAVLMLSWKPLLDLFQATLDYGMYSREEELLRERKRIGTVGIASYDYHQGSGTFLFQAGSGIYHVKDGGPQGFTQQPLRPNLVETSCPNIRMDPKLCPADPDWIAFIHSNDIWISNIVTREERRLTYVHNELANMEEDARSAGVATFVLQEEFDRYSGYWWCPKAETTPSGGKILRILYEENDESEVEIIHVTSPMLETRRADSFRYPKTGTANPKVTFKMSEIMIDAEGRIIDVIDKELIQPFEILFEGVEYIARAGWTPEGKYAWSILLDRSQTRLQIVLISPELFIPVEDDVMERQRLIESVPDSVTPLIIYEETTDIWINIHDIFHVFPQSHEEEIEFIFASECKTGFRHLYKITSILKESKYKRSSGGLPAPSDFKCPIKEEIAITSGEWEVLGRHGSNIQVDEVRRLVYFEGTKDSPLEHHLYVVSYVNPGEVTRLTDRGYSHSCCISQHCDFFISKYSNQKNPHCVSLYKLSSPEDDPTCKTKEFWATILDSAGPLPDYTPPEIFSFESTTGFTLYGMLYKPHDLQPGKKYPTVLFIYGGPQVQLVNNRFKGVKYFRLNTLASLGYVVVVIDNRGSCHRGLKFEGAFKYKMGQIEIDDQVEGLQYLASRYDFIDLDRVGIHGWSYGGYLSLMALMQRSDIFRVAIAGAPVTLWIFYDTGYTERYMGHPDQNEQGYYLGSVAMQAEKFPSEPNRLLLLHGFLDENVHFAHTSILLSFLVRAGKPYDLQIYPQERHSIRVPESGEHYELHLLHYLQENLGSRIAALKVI
Dipeptidyl peptidase 9, sequence (Q86TI2 whole entry): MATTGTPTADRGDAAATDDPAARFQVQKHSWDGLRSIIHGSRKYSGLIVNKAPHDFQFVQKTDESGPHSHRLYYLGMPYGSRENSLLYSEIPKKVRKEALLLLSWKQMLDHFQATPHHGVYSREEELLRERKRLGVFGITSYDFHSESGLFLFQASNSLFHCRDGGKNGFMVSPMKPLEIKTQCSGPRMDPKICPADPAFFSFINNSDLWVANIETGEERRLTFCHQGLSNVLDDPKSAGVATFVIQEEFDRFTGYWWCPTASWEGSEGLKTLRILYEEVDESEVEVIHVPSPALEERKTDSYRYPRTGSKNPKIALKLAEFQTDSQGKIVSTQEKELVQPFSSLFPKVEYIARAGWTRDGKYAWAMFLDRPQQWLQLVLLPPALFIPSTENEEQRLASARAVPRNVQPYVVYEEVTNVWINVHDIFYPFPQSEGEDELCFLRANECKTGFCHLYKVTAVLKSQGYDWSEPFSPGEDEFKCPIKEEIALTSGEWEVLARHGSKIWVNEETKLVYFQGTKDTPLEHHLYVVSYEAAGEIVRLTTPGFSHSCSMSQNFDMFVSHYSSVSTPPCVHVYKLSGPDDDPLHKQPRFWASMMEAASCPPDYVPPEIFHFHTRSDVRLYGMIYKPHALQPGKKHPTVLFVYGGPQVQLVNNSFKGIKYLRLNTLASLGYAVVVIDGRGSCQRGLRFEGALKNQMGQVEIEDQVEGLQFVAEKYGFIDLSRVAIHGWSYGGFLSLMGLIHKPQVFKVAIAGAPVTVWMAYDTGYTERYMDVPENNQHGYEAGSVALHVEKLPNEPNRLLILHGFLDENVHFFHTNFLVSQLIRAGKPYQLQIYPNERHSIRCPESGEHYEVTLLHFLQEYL

Row | IC50 (Dipeptidyl peptidase 8) [µM] | IC50 (Dipeptidyl peptidase 2) [µM] | IC50 (Dipeptidyl peptidase 9) [µM] | IC50 (Dipeptidyl peptidase 4) [µM] | Compound
1 | > 100 | > 100 | > 100 | – | N[C@H]1C[C@@H](N2CCn3c(nnc3C(F)(F)F)C2)CC[C@@H]1c1cc(F)c(F)cc1F
2 | – | 61 | – | 0.0053 | N[C@H]1C[C@@H](N2Cc3cnc(C4CC4)nc3C2)CC[C@@H]1c1cc(F)c(F)cc1F
3 | – | 68 | – | 0.0066 | N[C@H]1C[C@@H](N2Cc3ccccc3C2)CC[C@@H]1c1cc(F)c(F)cc1F
4 | – | > 100 | – | 0.00067 | N[C@H]1C[C@@H](N2Cc3cncnc3C2)CC[C@@H]1c1cc(F)c(F)cc1F
